Reference: patent US8198290B2, “Methoxatin derivatives” (Berry and Associates, Inc., priority 2009, dated 2012)
“And” between values parts separate entries of the source, which are not always exact repeats. Equal values may be shown once.

Target: T1, soluble glucose dehydrogenase (GDH) (Acinetobacter calcoaceticus, UniProt P13650)
T1 sequence (P13650 25-478): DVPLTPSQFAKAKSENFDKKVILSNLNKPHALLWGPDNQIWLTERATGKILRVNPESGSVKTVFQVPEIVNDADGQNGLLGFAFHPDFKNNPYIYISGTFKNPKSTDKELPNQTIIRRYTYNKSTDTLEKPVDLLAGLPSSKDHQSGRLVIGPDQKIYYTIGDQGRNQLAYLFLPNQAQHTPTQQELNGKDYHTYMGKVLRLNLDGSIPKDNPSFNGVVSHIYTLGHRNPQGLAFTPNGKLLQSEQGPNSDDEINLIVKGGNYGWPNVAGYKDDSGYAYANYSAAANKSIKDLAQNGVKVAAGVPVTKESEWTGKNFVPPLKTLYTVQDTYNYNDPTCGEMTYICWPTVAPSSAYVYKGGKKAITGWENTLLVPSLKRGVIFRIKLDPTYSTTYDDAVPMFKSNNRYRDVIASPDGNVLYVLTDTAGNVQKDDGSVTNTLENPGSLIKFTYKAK
Assay: GDH assay: coenzyme activity relative to native methoxatin
Assay type: biochemical
Parameters: concentration or dose not given beside the values
Details: coenzyme activity expressed as a percentage of the methoxatin sample
Description: The coenzyme activity of several compounds relative to native methoxatin was determined with a published assay that utilizes soluble glucose dehydrogenase (GDH) from Acinetobactercalcoaceticus. (Misset-Smits et al., Methods in Enzymol., 280, 89-98 (1997)).

Question: `C=CCCCONC(=O)c1cc(C(=O)O)c2c(n1)C(=O)C(=O)c1cc(C(=O)O)[nH]c1-2` [Compound 5, 4,5-Dioxo-7-((pent-4-en-1-yloxy)carbamoyl)-4,5-dihydro-1H-pyrrolo[2,3-f]quinoline-2,9-dicarboxylic acid] was tested. Which “Relative Activity in GDH Assay” value did it give?
Answer: 40% and 45%

Question: How did the “Relative Activity in GDH Assay” value turn out when `[N-]=[N+]=NCCOCCOCCOCCONC(=O)c1cc(C(=O)O)c2c(n1)C(=O)C(=O)c1cc(C(=O)O)[nH]c1-2` [Compound 7, 7-(((11-Azido-3,6,9-trioxaundecyl)oxy)carbamoyl)-4,5-dioxo-4,5-dihydro-1H-pyrrolo[2,3-f]quinoline-2,9-dicarboxylic acid] was run?
Answer: 45% and 40%

Question: Which “Relative Activity in GDH Assay” value does the source give for `O=C(/C=C/c1cn([C@H]2C[C@H](O)[C@@H](CO)O2)c(=O)[nH]c1=O)NCCCCCCNC(=O)c1ccc(C(=O)NCCOCCOCCOCCONC(=O)c2cc(C(=O)O)c3c(n2)C(=O)C(=O)c2cc(C(=O)O)[nH]c2-3)c(P(=O)(c2ccccc2)c2ccccc2)c1` [Compound 15, 7-(((1-(2-(diphenylphosphoryl)-4-((6-((E)-3-(1-((2R,4S,5R)-4-hydroxy-5-(hydroxymethyl)tetrahydrofuran-2-yl)-2,4-dioxo-1,2,3,4-tetrahydropyrimidin-5-yl)acrylamido)hexyl)carbamoyl)phenyl)-1-oxo-5,8,11-trioxa-2-azatridecan-13-yl)oxy)carbamoyl)-4,5-dioxo-4,5-dihydro-1H-pyrrolo[2,3-f]quinoline-2,9-dicarboxylic acid] here?
Answer: 6%

Question: With `O=C(O)c1cc(C(=O)O)c2c(n1)C(=O)C(=O)c1cc(C(=O)O)[nH]c1-2` [Methoxatin] as the molecule, how does the “Relative Activity in GDH Assay” value read?
Answer: 100%
